Target: ENPP-1 (Ectonucleotide Pyrophosphatase/Phosphodiesterase 1) (Homo sapiens (Human), UniProt P22413)
Assay: ENPP1 inhibition assay (AMP Glo, cGAMP substrate)
Assay type: biochemical
Details: cGAMP 20 μM substrate, ENPP1 1 nM
Procedure: IC50 values of compounds against ENPP-1 (Ectonucleotide Pyrophosphatase/Phosphodiesterase 1) were determined at Integral BioSciences (India) using AMP Glo (Promega, Cat #V5011). Assay was performed in a 30 μL final volume in a white 96-well Half Area plate (Costar,Cat #3693). Dose response curve for the compounds were prepared in duplicates with starting conc. at 5 μM and a three-fold titration was performed. The reaction buffer consisted of 50 mM Tris (pH 8.0), 0.5 mM CaCl2), 1 μM ZnCl2, 250 mM NaCl and 0.1 mg/ml BSA. To the compound dilution, 15 μL of ENPP1 enzyme (R&D Systems; Cat #6136-EN-010) was added to each well (final conc. 1 nM) and the mix was pre-incubated for 15 min at RT. An equal volume (15 μL) containing cGAMP (Sigma, Cat #SML-1229) (final conc. 20 μM) was added to initiate the enzyme reaction and the reaction was incubated for 30 min at RT. The reaction was then stopped by heating at 90° C. for 3 minutes. 10 μl of reaction was then transferred to 384 well white, medium binding plates (Grenier, Cat #781075) to which 10 μl of AMP-Glo Reagent 1 was added and mixed well and incubated for 1 hour at 25° C. Following 60 min incubation, 20 μL of detection mixture was added to the enzyme reaction bringing the final volume to 40 μL. The reaction was further incubated for 60 min at RT after which the plates were read using BioTek Plate reader.
Analysis was done using the standard curve by non-linear regression, variable slope inhibitor curve fits (Graph-Pad Prism) and IC50's of compounds were determined wherever possible.

Chain of ENPP-1 (Ectonucleotide Pyrophosphatase/Phosphodiesterase 1) (P22413 whole entry): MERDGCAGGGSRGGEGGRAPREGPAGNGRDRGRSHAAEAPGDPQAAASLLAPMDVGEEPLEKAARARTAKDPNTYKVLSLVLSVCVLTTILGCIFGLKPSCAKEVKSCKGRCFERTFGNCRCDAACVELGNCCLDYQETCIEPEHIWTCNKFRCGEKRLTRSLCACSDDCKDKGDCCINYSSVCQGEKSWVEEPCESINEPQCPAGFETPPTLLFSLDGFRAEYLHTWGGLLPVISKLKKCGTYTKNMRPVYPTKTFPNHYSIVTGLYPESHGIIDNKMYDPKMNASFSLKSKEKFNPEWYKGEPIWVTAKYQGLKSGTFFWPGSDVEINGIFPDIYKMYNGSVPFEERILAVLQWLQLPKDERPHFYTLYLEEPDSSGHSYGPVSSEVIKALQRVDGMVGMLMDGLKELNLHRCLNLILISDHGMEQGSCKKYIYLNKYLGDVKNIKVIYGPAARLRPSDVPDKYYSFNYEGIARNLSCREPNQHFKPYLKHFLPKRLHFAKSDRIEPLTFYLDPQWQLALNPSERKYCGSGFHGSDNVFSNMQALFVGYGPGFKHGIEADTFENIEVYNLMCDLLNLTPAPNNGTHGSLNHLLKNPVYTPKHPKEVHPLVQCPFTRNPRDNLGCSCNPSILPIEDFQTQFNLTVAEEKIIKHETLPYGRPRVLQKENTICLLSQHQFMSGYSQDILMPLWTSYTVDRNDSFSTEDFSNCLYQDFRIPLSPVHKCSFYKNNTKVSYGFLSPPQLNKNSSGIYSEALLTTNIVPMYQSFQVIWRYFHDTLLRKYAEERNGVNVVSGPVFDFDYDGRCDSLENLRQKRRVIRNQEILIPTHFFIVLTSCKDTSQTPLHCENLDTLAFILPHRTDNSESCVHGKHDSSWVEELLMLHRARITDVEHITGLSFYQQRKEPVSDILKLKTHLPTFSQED

Structure (SMILES)	IC50 [µM]
Cc1cc(Cl)n2ncnc(N3CC4(CC(N(C[C@@H](O)C(F)(F)F)S(N)(=O)=O)C4)C3)c12 (stereo in doubt) [Compound 1.125, N-(2-(7-chloro-5-methylpyrrolo[2,1-f][1,2,4]triazin-4-yl)-2-azaspiro[3.3]heptan-6-yl)-N-(3,3,3-trifluoro-2-hydroxypropyl)sulfamide]	0.05
Cc1cc(Cl)n2ncnc(N3CC4(CC(N(C[C@H](O)C(F)(F)F)S(N)(=O)=O)C4)C3)c12 (stereo in doubt) [Compound 1.126, N-(2-(7-chloro-5-methylpyrrolo[2,1-f][1,2,4]triazin-4-yl)-2-azaspiro[3.3]heptan-6-yl)-N-(3,3,3-trifluoro-2-hydroxypropyl)sulfamide]	0.023
COc1cccc2c(N3CC(CCNS(N)(=O)=O)C3)ncnc12 [Compound 1.4, (2-(1-(8-methoxyquinazolin-4-yl)azetidin-3-yl)ethyl)aminosulfonamide]	0.072
COc1cc2ncnc(N3CC(CCC(=O)O)C3)c2cc1OC [Compound 1.5, 3-(1-(6,7-dimethoxyquinazolin-4-yl)azetidin-3-yl)propanoic acid]	0.16
COc1cc2ncnc(N3CC(CNS(N)(=O)=O)C3)c2cc1OC [Compound 1.10, N-((1-(6,7-dimethoxyquinazolin-4-yl)azetidin-3-yl)methyl) aminisulfonamide]	0.028
COc1cc2nccc(N3CC(CCNS(N)(=O)=O)C3)c2cc1OC [Compound 1.11, (2-(1-(6,7-dimethoxyquinolin-4-yl)azetidin-3-yl)ethyl)aminosulfonamide]	0.09
COc1cc2ncc(C#N)c(N3CC(CCNS(N)(=O)=O)C3)c2cc1OC [Compound 1.12, (2-(1-(3-cyano-6,7-dimethoxyquinolin-4-yl)azetidin-3-yl)ethyl)aminisulfonamide]	0.004
COc1cc2ncnc(N3CC4(CC(NS(N)(=O)=O)C4)C3)c2cc1OC [Compound 1.15, 4-(6-sulfamoylamino-2-azaspiro[3.3]heptan-2-yl)-6,7-dimethoxyquinazoline]	0.005
NS(=O)(=O)NCCC1CN(c2ncnc3cc4c(cc23)OCO4)C1 [Compound 1.18, 8-(3-(2-sulfamoylaminoethyl)azetidine-1-yl)-[1,3]dioxolo[4,5-g]quinazoline]	> 3
COc1cc2ncnc(N3CC(CCP(=O)(O)O)C3)c2cc1OC [Compound 1.29, 2-(1-(6,7-dimethoxyquinazolin-4-yl)azetidin-3-yl)ethylphosphonic acid]	0.892
CCc1nc(N2CC(CCNS(N)(=O)=O)C2)c2ccc(OC)cc2n1 [Compound 1.37, 2-ethyl-7-methoxy-4-[3-[2-(sulfamoylamino)ethyl]azetidin-1-yl]quinazoline]	> 3
COc1cc(F)cc2c(N3CC(CCNS(N)(=O)=O)C3)ncnc12 [Compound 1.38]	> 3
COc1cc2ncnc(N3CC(CCNS(N)(=O)=O)C3)c2cc1Br [Compound 1.41, 4-(3-(2-sulfamoylaminoethyl)azetidine-1-yl)-6-bromo-7-methoxyquinazoline]	0.737
COc1ccc2c(N3CC(CCNS(N)(=O)=O)C3)nc(-c3cccnc3)nc2c1 [Compound 1.44, 4-(3-(2-sulfamoylaminoethyl)azetidine-1-yl)-7-methoxy-2-(pyridin-3-yl)quinazoline]	> 3
COc1ccc2c(N3CC(CCNS(N)(=O)=O)C3)nc(C34CC5CC(CC(C5)C3)C4)nc2c1 [Compound 1.45, 2-(1-adamantyl)-7-methoxy-4-[3-[2-(sulfamoylamino)ethyl]azetidin-1-yl]quinazoline]	> 3
COc1cc2ncnc(N3CC4(CC(CB(O)O)C4)C3)c2cc1OC [Compound 1.53, (2-(6,7-dimethoxyquinazolin-4-yl)-2-azaspiro[3.3]heptan-6-yl)methylboronic acid]	0.122
COc1cc2ncnc(N3CC(/C=C/S(N)(=O)=O)C3)c2cc1OC [Compound 1.55, (E)-2-(1-(6,7-dimethoxyquinazolin-4-yl)azetidin-3-yl)ethenesulfonamide]	0.036
COc1cc2ncnc(N3CC(CCNS(N)(=O)=O)(c4ccccc4)C3)c2cc1OC [Compound 1.58, 4-3-(2-(sulfamoylamino)ethyl)-3-phenylazetidin-1-yl-6,7-dimethoxyquinazoline]	0.66
Cc1ccn2ncnc(N3CC(CCB(O)O)C3)c12 [Compound 1.59, 2-(1-(5-methylpyrrolo[1,2-f][1,2,4]triazin-4-yl)azetidin-3-yl)ethylboronic acid]	> 3
CCc1nc(N2CC(CCNS(N)(=O)=O)C2)c2cc(OC)c(OC)cc2n1 [Compound 1.61, 2-ethyl-6,7-dimethoxy-4-[3-[2-(sulfamoylamino)ethyl]azetidin-1-yl]quinazoline]	0.097
Cc1ccn2ncnc(N3CC4(CC(NS(N)(=O)=O)C4)C3)c12 [Compound 1.62]	0.067
COc1cc2ncnc(N3CC(CCCS(=O)(=O)O)C3)c2cc1OC [Compound 1.65, 3-(1-(6,7-dimethoxyquinazolin-4-yl)azetidin-3-yl)propane-1-sulfonic acid]	0.078

Results, then the compound that gave them:

IC50 [µM]	Structure (SMILES)
> 5	COc1cc2[nH]c(=O)nc(N3CC(CCNS(N)(=O)=O)C3)c2cc1OC [Compound 1.2, (2-(1-(6,7-dimethoxy-2-oxo-1,2-dihydroquinazolin-4-yl)azetidin-3-yl)ethyl)amiosulfonamide]
0.22	COc1cc2c(N3CC(CCNS(N)(=O)=O)C3)ncnc2cn1 [Compound 1.3, (2-(1-(6-methoxypyrido[3,4-d]pyrimidin-4-yl)azetidin-3-yl)ethyl)aminisulfonamide]
0.008	COc1ccc2c(N3CC(CCNS(N)(=O)=O)C3)ncnc2c1 [Compound 1.8, (2-(1-(7-methoxyquinazolin-4-yl)azetidin-3-yl)ethyl)aminisulfonamide]
0.032	COc1cccc2c(N3CC(CCNS(N)(=O)=O)C3)c(C#N)cnc12 [Compound 1.9, (2-(1-(3-cyano-8-methoxyquinolin-4-yl)azetidin-3-yl)ethyl)aminisulfonamide]
0.011	COc1ccc2c(N3CC(CCNS(N)(=O)=O)C3)c(C#N)cnc2c1 [Compound 1.13, 4-(3-(2-sulfamoylaminoethyl)azetidine-1-yl)-7-methoxyquinoline-3-carbonitrile]
0.12	Cn1ccc2ncnc(N3CC(CCNS(N)(=O)=O)C3)c21 [Compound 1.14, 4-(3-(2-sulfamoylaminoethyl)azetidine-1-yl)-5-methyl-5H-pyrrolo[3,2-d]pyrimidine]
0.076	COc1ccc2ncnc(N3CC(CCNS(N)(=O)=O)C3)c2c1 [Compound 1.16, 4-(3-(2-sulfamoylaminoethyl)azetidine-1-yl)-6-methoxyquinazoline]
0.002	COc1cc2ncc(C#N)c(N3CC4(CC(NS(N)(=O)=O)C4)C3)c2cc1OC [Compound 1.24, 4-(6-sulfamoylamino-2-azaspiro[3.3]heptan-2-yl)-6,7-dimethoxyquinoline-3-carbonitrile]
0.66	COc1cc2nc(C3CC3)nc(N3CC(CCNS(N)(=O)=O)C3)c2cc1OC [Compound 1.25, 4-(3-(2-sulfamoylaminoethyl)azetidine-1-yl)-2-cyclopropyl-6,7-dimethoxyquinazoline]
> 3	COc1ccc2c(N3CC(CCNS(N)(=O)=O)C3)ncnc2c1OC [Compound 1.31, 4-(3-(2-sulfamoylaminoethyl)azetidine-1-yl)-7,8-dimethoxyquinazoline]
> 3	Cn1cnc2c(F)c3ncnc(N4CC(CCNS(N)(=O)=O)C4)c3cc21 [Compound 1.32, 8-(3-(2-sulfamoylaminoethyl)azetidine-1-yl)-4-fluoro-1-methyl-1H-imidazo[4,5-g]quinazoline]
0.248	COc1cc2nc(-c3ccc(F)cc3)nc(N3CC(CCNS(N)(=O)=O)C3)c2cc1OC [Compound 1.33, 4-(3-(2-sulfamoylaminoethyl)azetidine-1-yl)-2-(4-fluorophenyl)-6,7-dimethoxyquinazoline]
> 3	COc1ccc2c(N3CC(CCNS(N)(=O)=O)C3)nc(-c3ccccc3)nc2c1 [Compound 1.34, 4-(3-(2-sulfamoylaminoethyl)azetidine-1-yl)-7-methoxy-2-phenylquinazoline]
0.464	COc1cc2nc(-c3ccn(C)n3)nc(N3CC(CCNS(N)(=O)=O)C3)c2cc1OC [Compound 1.36, 6,7-dimethoxy-2-(1-methylpyrazol-3-yl)-4-[3-[2-(sulfamoylamino)ethyl]azetidin-1-yl]quinazoline]
1.68	COc1cc2ncnc(N3CC(CCNS(N)(=O)=O)C3)c2cc1C [Compound 1.54, N-(2-[1-(7-methoxy-6-methylquinazolin-4-yl)azetidin-3-yl]ethyl)sulfuric diamide]
0.085	COc1ccc2c(N3CC(CCCS(N)(=O)=O)C3)ncnc2c1 [Compound 1.56, 3-(1-(7-methoxyquinazolin-4-yl)azetidin-3-yl)propane-1-sulfonamide]
0.003	COc1cc2nncc(N3CC4(CC(N(C)S(N)(=O)=O)C4)C3)c2cc1OC [Compound 1.68, 4(6-N-methylsulfamoylamino)-2-azaspiro[3.3]heptan-2-yl-6,7-dimethoxycinnoline]

From US20240352046A1, “ECTONUCLEOTIDE PYROPHOSPHATASE-PHOSPHODIESTERASE-1 (ENPP1) INHIBITORS AND USES THEREOF” (1cBio, Inc., priority 2020, published 2024)
